Experimental data published in patent US20150094474A1, “AGRICULTURAL CHEMICALS” (Redx Pharma Ltd., priority 2012, published 2015).

What was measured:
[1] = tested on: peas; assay: Herbicidal bioassay, peas (% necrosis); assay type: in vivo
Protocol: (§1) A laboratory bioassay was conducted to screen ten compounds (Fluazifop (25); Ethyl fluazifop (62); five fluazifop analogues: 27, 28, 63, 64 and 65; mesofulfuron (6); and two mesosulfuron analogues: 8 and 61. for activity against Lolium perenne, barley, peas and Chinese cabbage. Compounds were diluted in DMSO. Controls were performed using both DMSO and water.
(§2) Plants were obtained as seeds and were grown to the 2-4 true leaf stage. Plants were grown individually in seed trays. Each plant (in an approximately 3 cm diameter plug) was then detached from the tray for spraying. Environmental conditions were closely monitored and recorded and were within the optimal range of the target species.
(§3) The compounds were screened at a range of six concentrations, eg. 0.05%, 0.01%, 0.005%, 0.001%, 0.0005% and 0.0001%. Treatments will be applied directly onto the plants, using a potter tower.
(§4) One plant of each type will be sprayed using a potter tower. The 4 different types of weeds will be placed in a 10 cm diameter area underneath the potter sprayer and sprayed simultaneously. The growth of the plants and any Phytotoxicity effects will then be assessed at specified growth intervals, according to EPPO guideline PP1/135. Five replicates will be performed for each treatment, for each species.

[2] = tested on: barley; assay: Herbicidal bioassay, barley (% necrosis); assay type: in vivo
Protocol: as §1, §2, §3, §4

## COc1cc(OC)nc(NC(=O)NS(=O)(=O)c2cc(CNS(C)(=O)=O)ccc2CO)n1 [Compound 8, 1-(4,6-Dimethoxypyrimidin-2-yl)-3-[2-(hydroxymethyl)-5-(methanesulfonamidomethyl)phenyl]sulfonyl-urea]
[1]; Dose 0.000001, Day 0
  Sum of % necrosis in Pea: C (less than 50% necrosis)
[1]; Dose 0.000001, Day 1
  Sum of % necrosis in Pea: C (less than 50% necrosis)
[1]; Dose 0.000001, Day 3
  Sum of % necrosis in Pea: B (50%-80% necrosis)
[1]; Dose 0.000001, Day 7
  Sum of % necrosis in Pea: A (over 80% necrosis)
[1]; Dose 0.000001, Day 10
  Sum of % necrosis in Pea: A (over 80% necrosis)
[1]; Dose 0.000001, Day 14
  Sum of % necrosis in Pea: A (over 80% necrosis)
[1]; Dose 0.000005, Day 0
  Sum of % necrosis in Pea: C (less than 50% necrosis)
[1]; Dose 0.000005, Day 1
  Sum of % necrosis in Pea: C (less than 50% necrosis)
[1]; Dose 0.000005, Day 3
  Sum of % necrosis in Pea: B (50%-80% necrosis)
[1]; Dose 0.000005, Day 7
  Sum of % necrosis in Pea: B (50%-80% necrosis)
[1]; Dose 0.000005, Day 10
  Sum of % necrosis in Pea: A (over 80% necrosis)
[1]; Dose 0.000005, Day 14
  Sum of % necrosis in Pea: A (over 80% necrosis)
[1]; Dose 0.00001, Day 0
  Sum of % necrosis in Pea: C (less than 50% necrosis)
[1]; Dose 0.00001, Day 1
  Sum of % necrosis in Pea: C (less than 50% necrosis)
[1]; Dose 0.00001, Day 3
  Sum of % necrosis in Pea: B (50%-80% necrosis)
[1]; Dose 0.00001, Day 7
  Sum of % necrosis in Pea: A (over 80% necrosis)
[1]; Dose 0.00001, Day 10
  Sum of % necrosis in Pea: A (over 80% necrosis)
[1]; Dose 0.00001, Day 14
  Sum of % necrosis in Pea: A (over 80% necrosis)
[1]; Dose 0.00005, Day 0
  Sum of % necrosis in Pea: C (less than 50% necrosis)
[1]; Dose 0.00005, Day 1
  Sum of % necrosis in Pea: C (less than 50% necrosis)
[1]; Dose 0.00005, Day 3
  Sum of % necrosis in Pea: B (50%-80% necrosis)
[1]; Dose 0.00005, Day 7
  Sum of % necrosis in Pea: A (over 80% necrosis)
[1]; Dose 0.00005, Day 10
  Sum of % necrosis in Pea: A (over 80% necrosis)
[1]; Dose 0.00005, Day 14
  Sum of % necrosis in Pea: A (over 80% necrosis)
[1]; Dose 0.0001, Day 0
  Sum of % necrosis in Pea: C (less than 50% necrosis)
[1]; Dose 0.0001, Day 1
  Sum of % necrosis in Pea: C (less than 50% necrosis)
[1]; Dose 0.0001, Day 3
  Sum of % necrosis in Pea: B (50%-80% necrosis)
[1]; Dose 0.0001, Day 7
  Sum of % necrosis in Pea: A (over 80% necrosis)
[1]; Dose 0.0001, Day 10
  Sum of % necrosis in Pea: A (over 80% necrosis)
[1]; Dose 0.0001, Day 14
  Sum of % necrosis in Pea: A (over 80% necrosis)
[1]; Dose 0.0005, Day 0
  Sum of % necrosis in Pea: C (less than 50% necrosis)
[1]; Dose 0.0005, Day 1
  Sum of % necrosis in Pea: C (less than 50% necrosis)
[1]; Dose 0.0005, Day 3
  Sum of % necrosis in Pea: B (50%-80% necrosis)
[1]; Dose 0.0005, Day 7
  Sum of % necrosis in Pea: A (over 80% necrosis)
[1]; Dose 0.0005, Day 10
  Sum of % necrosis in Pea: A (over 80% necrosis)
[1]; Dose 0.0005, Day 14
  Sum of % necrosis in Pea: A (over 80% necrosis)
[2]; Dose 0.000001, Day 0
  Sum of % necrosis in barley: C (less than 50% necrosis)
[2]; Dose 0.000001, Day 1
  Sum of % necrosis in barley: C (less than 50% necrosis)
[2]; Dose 0.000001, Day 3
  Sum of % necrosis in barley: C (less than 50% necrosis)
[2]; Dose 0.000001, Day 7
  Sum of % necrosis in barley: C (less than 50% necrosis)
[2]; Dose 0.000001, Day 10
  Sum of % necrosis in barley: C (less than 50% necrosis)
[2]; Dose 0.000001, Day 14
  Sum of % necrosis in barley: C (less than 50% necrosis)
[2]; Dose 0.000005, Day 0
  Sum of % necrosis in barley: C (less than 50% necrosis)
[2]; Dose 0.000005, Day 1
  Sum of % necrosis in barley: C (less than 50% necrosis)
[2]; Dose 0.000005, Day 3
  Sum of % necrosis in barley: C (less than 50% necrosis)
[2]; Dose 0.000005, Day 7
  Sum of % necrosis in barley: C (less than 50% necrosis)
[2]; Dose 0.000005, Day 10
  Sum of % necrosis in barley: C (less than 50% necrosis)
[2]; Dose 0.000005, Day 14
  Sum of % necrosis in barley: C (less than 50% necrosis)
[2]; Dose 0.00001, Day 0
  Sum of % necrosis in barley: C (less than 50% necrosis)
[2]; Dose 0.00001, Day 1
  Sum of % necrosis in barley: C (less than 50% necrosis)
[2]; Dose 0.00001, Day 3
  Sum of % necrosis in barley: C (less than 50% necrosis)
[2]; Dose 0.00001, Day 7
  Sum of % necrosis in barley: C (less than 50% necrosis)
[2]; Dose 0.00001, Day 10
  Sum of % necrosis in barley: C (less than 50% necrosis)
[2]; Dose 0.00001, Day 14
  Sum of % necrosis in barley: C (less than 50% necrosis)
[2]; Dose 0.00005, Day 0
  Sum of % necrosis in barley: C (less than 50% necrosis)
[2]; Dose 0.00005, Day 1
  Sum of % necrosis in barley: C (less than 50% necrosis)
[2]; Dose 0.00005, Day 3
  Sum of % necrosis in barley: C (less than 50% necrosis)
[2]; Dose 0.00005, Day 7
  Sum of % necrosis in barley: C (less than 50% necrosis)
[2]; Dose 0.00005, Day 10
  Sum of % necrosis in barley: C (less than 50% necrosis)
[2]; Dose 0.00005, Day 14
  Sum of % necrosis in barley: C (less than 50% necrosis)
[2]; Dose 0.0001, Day 0
  Sum of % necrosis in barley: C (less than 50% necrosis)
[2]; Dose 0.0001, Day 1
  Sum of % necrosis in barley: C (less than 50% necrosis)
[2]; Dose 0.0001, Day 3
  Sum of % necrosis in barley: C (less than 50% necrosis)
[2]; Dose 0.0001, Day 7
  Sum of % necrosis in barley: C (less than 50% necrosis)
[2]; Dose 0.0001, Day 10
  Sum of % necrosis in barley: C (less than 50% necrosis)
[2]; Dose 0.0001, Day 14
  Sum of % necrosis in barley: C (less than 50% necrosis)
[2]; Dose 0.0005, Day 0
  Sum of % necrosis in barley: C (less than 50% necrosis)
[2]; Dose 0.0005, Day 1
  Sum of % necrosis in barley: C (less than 50% necrosis)
[2]; Dose 0.0005, Day 3
  Sum of % necrosis in barley: C (less than 50% necrosis)
[2]; Dose 0.0005, Day 7
  Sum of % necrosis in barley: C (less than 50% necrosis)
[2]; Dose 0.0005, Day 10
  Sum of % necrosis in barley: C (less than 50% necrosis)
[2]; Dose 0.0005, Day 14
  Sum of % necrosis in barley: C (less than 50% necrosis)
